Here are results for twelve compounds from patent publication US11447498B2, “Fused tetracyclic compounds and uses thereof in medicine” (SUNSHINE LAKE PHARMA CO., LTD., priority 2018, dated 2022).

Data set [1] concerns HBV DNA replication. Put plainly: Inhibition experiment on HBV virus replication (HepG 2,2,15 cells, supernatant HBV DNA by qPCR). The settings on record: Hepatitis B virus, HepG2.2.15, 10 days treatment, supernatant HBV DNA on day 11. Format: cell-based. An excerpt: (§1) The chromosomal integration of HepG2,2,15 cells (SELLS, PNAS, 1987 and SELLS, JV, 1988) has a complete HBV genome and stably expresses viral RNA and viral proteins. HepG2,2,15 cells are capable of secreting mature hepatitis B virus particles and HBsAg into the culture medium. Virus particles DNA and HBsAg secreted by HepG 2,2,15 cells can be quantified by qPCR and ELISA, and the effects of compounds on viral replication and HBsAg secretion can be detected.
HepG 2,2,15 cells were inoculated with 8,000 per cell to 96-well cell culture plates in duplicate, and were cultured for 3 days until the cells grew to full-hole. Cells were treated with 4-fold serial dilutions of compounds for 10 days, and were given once every other day. The final concentration of DMSO in all pores was 0.5% and DMSO was used as a drug-free control. The supernatant was collected for quantitative detection of HBV DNA on day 11.
Viral genomic DNA was detected by qPCR method, and HBV primers were as follows: […]
The SYBR Premix Ex Taq D-Takara DRR081S kit was used, and 1 μL of cell culture supernatant was used as a template. A standard curve was made using a plasmid containing the HBV genome, and the viral copy number was calculated using the standard curve. Concentration-virus copy number was processed using Graphpad Prism 5 software, and IC50 of compounds inhibiting virus replication was calculated by four-parameter nonlinear regression model.
Background: In qPCR the cycle at which signal appears reflects the starting amount.

Data set [2] concerns HBsAg secretion. Put plainly: Inhibition experiment on HBsAg secretion (HepG 2,2,15 cells, ELISA). The settings on record: Hepatitis B virus, HepG2.2.15, read-out: HBsAg IC50. The class given is cell-based.
Source text: as §1
HepG 2,2,15 cells were inoculated with 8,000 per cell to 96-well cell culture plates in duplicate, and were cultured for 3 days until the cells grew to full-hole. Cells were treated with 4-fold serial dilutions of compounds for 10 days, and were given once every other day. The final concentration of DMSO in all pores was 0.5% and DMSO was used as a drug-free control. The supernatant was collected for quantitative detection of HBsAg on day 11.
The level of HBsAg secreted by the cells after treatment of the compound was detected by ELISA method, and the method used a hepatitis B surface antigen diagnostic kit (Shanghai Kehua Biotech Co., Ltd. S10910113). 25 μL of the supernatant to be assayed (PBS was diluted to 75 μL) was added to per well in the ELISA plate, and the kit positive control and negative control were set. The ELIS A plate was blocked with a cover paper and incubated at 37° C. for 60 minutes. The ELISA plate was taken out, and the cover paper was teared off, and 50 μL of enzyme conjugate was added to each well. The ELISA plate was oscillated on the shaker for 10 seconds, blocked with a cover paper and incubated at 37° C. for 30 minutes. The ELISA plate was taken out, the cover paper was teared off, and the ELISA plate was washed 5 times: each time the liquid in the hole was discarded, and the washing liquid was filled into the holes, left to stand for 60 seconds, dried, and the liquid residue was patted to dry on the absorbent paper. A freshly prepared mixture of Developer A and Developer B was added to all wells immediately after washing: 100 μL per well. The ELISA plate was oscillated on the shaker for 10 seconds, blocked with a cover paper and incubated at 37° C. for 30 minutes. 50 μL of stop solution was added to all wells. Absorbance was read on the Envision plate reader at a wavelength of 450 nm.
Concentration-HBsAg OD450 was processed using Graphpad Prism 5 software, and IC50 of compounds inhibiting against HBsAg secretion was calculated by four-parameter nonlinear regression model.
(In an ELISA, binding on a coated surface is turned into a signal by an enzyme label.)

Data set [3] can be described thus: PK test experiments in SD rats. Format: in vivo. Also on record: VSS: unit not given here. The settings on record: for AUC(0-inf) / AUC(0-t) / Cmax / clearance: male, rat, plasma. As for the experimental part:
The PK test in vivo of the compound of the present invention in SD rats (body weight 200-250 g, male, age 2-3 months, 3 per group with oral administration, 3 per group with intravenous injection) The SD rat was administered orally with 2.5 mg/kg or 5 mg/kg of the compound tested or intravenously injected with 0.5 mg/kg or 1 mg/kg of the compound tested. After administration, venous blood was collected at time points (0.083, 0.25, 0.5, 1, 2, 5, 7 and 24 hours) and collected in an anticoagulation tube to which EDTA-K2 was added. Plasma samples were extracted by liquid-liquid extraction and quantitatively analyzed by multiple reaction ion monitoring (MRM) on a triple quadrupole tandem mass spectrometer. Pharmacokinetic parameters were calculated using a noncompartmental method by WinNonLin 6.3 software.

One may read the IC50 as the concentration that inhibits the measured activity by half. By AUC(0-inf) is commonly meant the area under the concentration-time curve extrapolated to infinity. Broadly, the AUC(0-t) is the area under the concentration-time curve up to a stated or last time point. A word on the Cmax: it is the maximum level reached in the sampled fluid or tissue. One may read the clearance as the rate of elimination divided by the concentration.

Consider `CC(C)C1Cc2cc(OCCC3CC3)c3c(c2-c2cc(=O)c(C(=O)O)cn21)CCO3` (stereo not drawn) [Example 3, 4-(2-Cyclopropylethoxy)-7-isopropyl-11-oxo-2,6,7,11-tetrahydro-1H-furo[2,3-h]pyrido[2,1-a]isoquinoline-10-carboxylic Acid], for which, in data set [1], the IC50 is 1.6 nM. In addition, the IC50 in data set [2] stood at 1.4 nM. In data set [3] (IV, 1 mg/kg), this compound returned a VSS of 1.5, an AUC(0-inf) of 1760 ng·h/mL, an AUC(0-t) of 1630 ng·h/mL and a Cmax of 744 ng/mL. The clearance in data set [3] (IV, 1 mg/kg) amounted to 9.45 mL/min/kg. In data set [3] (PO, 5 mg/kg), the F was 167.4%, the AUC(0-inf) was determined as 14800 ng·h/mL, the AUC(0-t) amounted to 14700 ng·h/mL and the Cmax worked out at 1810 ng/mL.
In data set [1], `CC(C)N1Cc2cc(-c3cnn(C(C)C)c3)c3c(c2-c2cc(=O)c(C(=O)O)cn21)CCO3` [Example 17, 7-Isopropyl-4-(1-isopropyl-11-pyrazol-4-yl)-11-oxo-2,6,7,11-tetrahydro-1H-furo[2,3-h]pyrido[2,1-a]phthalazine-10-carboxylic Acid] yielded an IC50 of 1.51 nM. Moreover, the IC50 in data set [2] is 3.27 nM. In data set [3] (IV, 1 mg/kg), this compound showed a VSS of 1.01, an AUC(0-inf) of 1640 ng·h/mL, an AUC(0-t) of 1610 ng·h/mL and a Cmax of 932 ng/mL. The clearance in data set [3] (IV, 1 mg/kg) came to 10.1 mL/min/kg. Further, in data set [3] (PO, 5 mg/kg), the F is recorded as 130.6%, the AUC(0-inf) turned out to be 10700 ng·h/mL, the AUC(0-t) was 10700 ng·h/mL and the Cmax is 1620 ng/mL.
In the case of `CC1(C)CCC2c3cc(OCCC4CC4)c4c(c3-c3cc(=O)c(C(=O)O)cn3N21)CCO4` (stereo not drawn) [Example 13, 5-(2-Cyclopropylethoxy)-1,1-dimethyl-10-oxo-2,3,3a,7,8,10-hexahydro-1H-furo[3,2-f]pyrido[1,2-c]pyrrolo[2,1-a]phthalazine-11-carboxylic Acid], the IC50 in data set [1] is below 0.24 nM. In addition, the IC50 in data set [2] amounted to 0.34 nM. In data set [3] (IV, 1 mg/kg), the VSS stood at 1.4, the AUC(0-inf) amounted to 2860 ng·h/mL, the AUC(0-t) is 2830 ng·h/mL and the Cmax amounted to 1000 ng/mL. The compound further had a clearance in data set [3] (IV, 1 mg/kg) of 5.84 mL/min/kg. In data set [3] (PO, 5 mg/kg), the F stood at 129%, the AUC(0-inf) came to 18400 ng·h/mL, the AUC(0-t) was found to be 18300 ng·h/mL and the Cmax is 1700 ng/mL.
On to `COCCCOc1cc2c(c3c1OCC3)-c1cc(=O)c(C(=O)O)cn1N1C2CCC1(C)C` (stereo not drawn) [Example 12, 5-(3-Methoxypropoxy)-1,1-dimethyl-10-oxo-2,3,3a,7,8,10-hexahydro-1H-furo [3,2-f]pyrido[1,2-c]pyrrolo[2,1-a]phthalazine-11-carboxylic Acid], for which the IC50 was below 0.24 nM in data set [1] and 0.81 nM in data set [2].
With `CC(C)C1Cc2cc(C#CC3CC3)c3c(c2-c2cc(=O)c(C(=O)O)cn21)CCO3` (stereo not drawn) [Example 31, 4-(Cyclopropylethynyl)-7-isopropyl-11-oxo-2,6,7,11-tetrahydro-1H-furo [2,3-h]pyrido[2,1-a]isoquinoline-10-carboxylic Acid], the IC50 came out at 0.72 nM in data set [1] and 1.39 nM in data set [2].
In the case of `CC(C)C1Cc2cc(-c3cnn(C(C)C)c3)c3c(c2-c2cc(=O)c(C(=O)O)cn21)CCO3` (stereo not drawn) [Example 9, 7-Isopropyl-4-(1-isopropyl-1H-pyrazol-4-yl)-11-oxo-2,6,7,11-tetrahydro-1H-furo[2,3-h]pyrido[2,1-a]isoquinoline-10-carboxylic Acid], the IC50 in data set [1] came out at 1.1 nM. In addition, the IC50 in data set [2] came out at 2.83 nM. In data set [3] (IV, 1 mg/kg), this compound showed a VSS of 2.2, an AUC(0-inf) of 1190 ng·h/mL, an AUC(0-t) of 1180 ng·h/mL and a Cmax of 641 ng/mL. This compound also returned a clearance in data set [3] (IV, 1 mg/kg) of 14 mL/min/kg. Besides, in data set [3] (PO, 5 mg/kg), the F came to 94%, the AUC(0-inf) was determined as 5590 ng·h/mL, the AUC(0-t) came out at 5560 ng·h/mL and the concentration peaked (Cmax) at 1630 ng/mL.
Turning to `CC(C)C1Cc2cc(-c3cnn(C4CCOCC4)c3)c3c(c2-c2cc(=O)c(C(=O)O)cn21)CCO3` (stereo not drawn) [Example 34, 7-Isopropyl-11-oxo-4-(1-(tetrahydro-2H-pyran-4-yl)-1H-pyrazol-4-yl)-2,6,7,11-tetrahydro-1H-furo[2,3-h]pyrido[2,1-a]isoquinoline-10-carboxylic Acid], the IC50 in data set [1] came out at 3.72 nM; in data set [2], 2.37 nM.
In the case of `CC(C)C1Cc2cc(-c3cncnc3)c3c(c2-c2cc(=O)c(C(=O)O)cn21)CCO3` (stereo not drawn) [Example 30, 7-Isopropyl-11-oxo-4-(pyrimidin-5-yl)-2,6,7,11-tetrahydro-1H-furo[2,3-h]pyrido[2,1-a]isoquinoline-10-carboxylic Acid], the IC50 came to 1.95 nM in data set [1] and 5.3 nM in data set [2].
Regarding `CC(C)C1Cc2cc(OCC3CCOCC3)c3c(c2-c2cc(=O)c(C(=O)O)cn21)CCO3` (stereo not drawn) [Example 5, 7-Isopropyl-11-oxo-4-((tetrahydro-2H-pyran-4-yl)methoxy)-2,6,7,11-tetrahydro-1H-furo[2,3-h]pyrido[2,1-a]isoquinoline-10-carboxylic Acid], the results for the IC50 in data set [1] and in data set [2] were 3.4 nM and 2.35 nM, respectively.
With `CC(C)C1Cc2cc(OCC3CC3)c3c(c2-c2cc(=O)c(C(=O)O)cn21)CCO3` (stereo not drawn) [Example 23, 4-(Cyclopropylmethoxy)-7-isopropyl-11-oxo-2,6,7,11-tetrahydro-11-furo [2,3-h]pyrido[2,1-a]isoquinoline-10-carboxylic Acid], the values for the half-maximal inhibitory concentration (IC50) in data set [1] and in data set [2] were 3.36 nM and 1.14 nM, respectively.
As to `COCCCOc1cc2c(c3c1OCC3)-c1cc(=O)c(C(=O)O)cn1C(C(C)C)C2` (stereo not drawn) [Example 2, 7-Isopropyl-4-(3-methoxypropoxy)-11-oxo-2,6,7,11-tetrahydro-1H-furo[2,3-h]pyrido[2,1-a]isoquinoline-10-carboxylic Acid], the IC50 in data set [1] is 1.21 nM. Further, the IC50 in data set [2] was 1.45 nM. Further, in data set [3] (IV, 1 mg/kg), the VSS was determined as 1.8, the total exposure AUC(0-inf) came out at 1330 ng·h/mL, the AUC(0-t) came out at 1210 ng·h/mL and the peak level (Cmax) was 738 ng/mL. The same compound registered a clearance in data set [3] (IV, 1 mg/kg) of 12.6 mL/min/kg. Also, in data set [3] (PO, 5 mg/kg), the F is listed as 174.5%, the AUC(0-inf) came out at 10600 ng·h/mL, the AUC(0-t) was 10600 ng·h/mL and the Cmax came to 1860 ng/mL.
As to `CC(C)C1Cc2cc(-c3cnn(C(F)F)c3)c3c(c2-c2cc(=O)c(C(=O)O)cn21)CCO3` (stereo not drawn) [Example 10, 4-(l (Difluoromethyl)-1H-pyrazol-4-yl)-7-isopropyl-11-oxo-2,6,7,11-tetrahydro-1H-furo[2,3-h]pyrido[2,1-a]isoquinoline-10-carboxylic Acid], the IC50 was 0.98 nM in data set [1] and 2.34 nM in data set [2].
